Read-outs that look alike come from different tables or passages of the source.
Experiments:
[1] = system: constitutive active colorectal cancer cell (CRC) Wnt pathway; assay: HCT116 Super TopFlash cellular reporter assay (constitutive active Wnt pathway); type: cell-based; details: HCT116 TOP reporter cells, luciferase expression, 36 hours incubation, 50 μM to 15 nM
In short: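 Luciferase luminescence served as the Wnt read-out after 36 h of compound treatment at 37 °C. Compound came from a pre-dilution series (50 μM down to 15 nM, 3.16-fold steps) in CAFTY buffer. Cells were stable HCT116 TOP reporter cells, with matched FOP-vector control cells tested in parallel, seeded a day earlier.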

[2] = system: HCT116 FOP control reporter cell line; assay: HCT116 FOP control vector reporter assay (non-functional TCF elements); type: cell-based; details: HCT116 FOP control reporter cells, luciferase expression, 36 hours incubation, 50 μM to 15 nM, read-out: HCT116 FOPFlash IC50
In short: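 Stable HCT116 line carrying the non-functional FOP luciferase construct, 10000 cells/well plated 24 hrs before. Compounds 50 μM to 15 nM (3.16-fold steps) in CAFTY buffer pH 7.4 with 2 mM Ca2+, 36 hours at 37° C; luciferase luminescence read.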

SMILES | IC50 [1] [µM] | IC50 [2] [µM] | IC50 ([1]; Homo sapiens, HCT-116, 36 h) [µM] | IC50 ([2]; Homo sapiens, HCT-116, 36 h) [µM]
CC(C(=O)Nc1cc(NC(=O)c2ccc(-c3ccccc3)cc2)ccc1C(F)(F)F)N1CC2CCC(C1)O2 (stereo not drawn) [Example 197, N-[3-{[(2S*)-2-(8-oxa-3-azabicydo[3.2.1]oct-3-yl)propanoyl]amino}-4-(trifluoromethyl)phenyl) biphenyl-4-carboxamide] | 1.48 | ≥ 50 | – | –
COc1ccc(NC(=O)c2ccc(-c3ccc(N(C)C)cc3)cc2)cc1NC(=O)CN1CCOCC1 [Example 198, 4′-(dimethylamino)-N-{4-methoxy-3-[(morpholin-4-ylacetyl)amino]phenyl} biphenyl-4-carboxamide] | – | – | 1.5 | ≥ 50
COc1ccc(NC(=O)c2ccc(-c3cc(F)cc(F)c3)cc2)cc1NC(=O)CN1CCOCC1 [Example 199, 3′,5′-difluoro-N-{4-methoxy-3-[(morpholin-4-ylacetyl)amino]phenyl} biphenyl-4-carboxamide] | – | – | 1.75 | ≥ 50
COCCc1noc(-c2ccc(C(=O)Nc3ccc(-c4ccccc4)cc3)cc2NC(=O)CN2CCOCC2)n1 [Example 200, N-(biphenyl-4-yl)-4-[3-(2-methoxyethyl)-1,2,4-oxadiazol-5-yl]-3-[(morpholin-4-ylacetyl)amino]benzamide] | – | – | 1.75 | ≥ 50
COc1ccc(C(=O)Nc2ccc(-c3ccccc3)cc2)cc1NC(=O)CN1C[C@H]2C[C@@H]1CO2 [Example 201, N-(biphenyl-4-yl)-4-methoxy-3-{[(1R,4R)-2-oxa-5-azabicyclo[2.2.1]hept-5-ylacetyl)amino}benzamide] | – | – | 1.9 | ≥ 50
COc1ccc(C(=O)Nc2ccc(-c3ccccc3)cc2)cc1NC(=O)CN1CCC(OC)C1 (stereo not drawn) [Example 202, N-(biphenyl-4-yl)-4-methoxy-3-{[(3-methoxypyrrolidin-1-yl)acetyl]amino}benzamide] | – | – | 1.9 | ≥ 50
COc1ccc(NC(=O)c2ccc(-c3ccccc3)c(F)c2)cc1NC(=O)CN1CCOCC1 [Example 203, 2-fluoro-N-{4-methoxy-3-[(morpholin-4-ylacetyl)amino]phenyl} biphenyl-4-carboxamide] | – | – | 2.02 | ≥ 50
O=C(CN1CCOCC1)Nc1cc(C(=O)Nc2ccc(-c3ccccc3)cc2)ccc1CO [Example 204, N-(biphenyl-4-yl)-4-(hydroxymethyl)-3-[(morpholin-4-ylacetyl)amino]benzamide] | – | – | 2.25 | ≥ 50
COc1ccc(NC(=O)c2ccc(-c3ccccc3)cc2)cc1NC(=O)CN1C[C@H]2C[C@@H]1CO2 [Example 205, N-(4-methoxy-3-{[(1R,4R)-2-oxa-5-azabicyclo[2.2.1]hept-5-ylacetyl]amino}phenyl) biphenyl-4-carboxamide] | – | – | 2.45 | ≥ 50
COc1ccc(C(=O)Nc2ccc(-c3ccccc3)cc2)cc1NC(=O)C1(N2CCOCC2)CCC1 [Example 206, N-(biphenyl-4-yl)-4-methoxy-3-({[1-(morpholin-4-yl)cyclobutyl)carbonyl}amino)benzamide] | – | – | 2.48 | ≥ 50
COc1ccc(C(=O)Nc2ccc(-c3ccccc3)cc2)cc1NC(=O)CN1CC(OC)C1 [Example 207, N-(biphenyl-4-yl)-4-methoxy-3-{[(3-methoxyazetidin-1-yl)acetyl]amino}benzamide] | – | – | 2.6 | ≥ 50
COc1ccc(NC(=O)c2ccc(-c3ccc4c(c3)CCO4)cc2)cc1NC(=O)CN1CCOCC1 [Example 208, 4-(2,3-dihydro-1-benzofuran-5-yl)-N-{4-methoxy-3-[(morpholin-4-ylacetyl)amino]phenyl} benzamide] | – | – | 3 | ≥ 50
COc1ccc(NC(=O)c2ccc(-c3cccc(N)c3)cc2)cc1NC(=O)CN1CCOCC1 [Example 209, 3′-amino-N-{4-methoxy-3-[(morpholin-4-ylacetyl)amino]phenyl} biphenyl-4-carboxamide] | – | – | 3.55 | ≥ 50
COc1ccc(C(=O)Nc2ccc(-c3ccccc3)cc2)cc1N(C)C(=O)CN1CC2CCC(C1)O2 [Example 210, N-(biphenyl-4-yl)-4-methoxy-3-[methyl(8-oxa-3-azabicyclo[3.2.1]oct-3-ylacetyl)amino]benzamide] | – | – | 3.6 | ≥ 50

Continued, values first:

IC50 [1] [µM] | IC50 [2] [µM] | IC50 ([1]; Homo sapiens, HCT-116, 36 h) [µM] | IC50 ([2]; Homo sapiens, HCT-116, 36 h) [µM] | SMILES
– | – | 3.9 | ≥ 50 | NC(=O)COc1ccc(NC(=O)c2ccc(-c3ccccc3)cc2)cc1NC(=O)CN1CCOCC1 [Example 211, N-{4-(2-amino-2-oxoethoxy)-3-[(morpholin-4-ylacetyl)amino]phenyl} biphenyl-4-carboxamide]
– | – | 4.35 | ≥ 50 | COc1ccc(NC(=O)c2ccc(-c3ccccc3)cc2)cc1NC(=O)CN1C[C@@H](C)O[C@@H](C)C1 [Example 212, N-[3-({[(2R,6S)-2,6-dimethylmorpholin-4-yl]acetyl}amino)-4-methoxyphenyl]biphenyl-4-carboxamide]
– | – | 4.6 | ≥ 50 | COc1ccc(NC(=O)c2ccc(-c3ccccc3)cc2)cc1NC(=O)CN1CCOC[C@@H]1CCO [Example 213, N-[3-({[(3S)-3-(2-hydroxyethyl)morpholin-4-yl]acetyl}amino)-4-methoxyphenyl]biphenyl-4-carboxamide]
– | – | 4.9 | ≥ 50 | COc1ccc(NC(=O)c2ccc(-c3ccccc3)cc2)cc1NC(=O)CN1CCO[C@H](CO)C1 [Example 214, N-[3-({[(2S)-2-(hydroxymethyl)morpholin-4-yl]acetyl}amino)-4-methoxyphenyl]biphenyl-4-carboxamide]
– | – | 0.772 | 18.9 | COc1c(Cl)cc(C(=O)Nc2ccc(-c3ccccc3)cc2)cc1NC(=O)CN1CCN(C)CC1 [Example 215, N-(biphenyl-4-yl)-3-chloro-4-methoxy-5-{[(4-methylpiperazin-1-yl)acetyl]amino}benzamide]
– | – | 0.524 | 6.95 | COc1c(F)cc(C(=O)Nc2ccc(-c3ccccc3)cc2)cc1NC(=O)CN1CCN(C)CC1 [Example 216, N-(biphenyl-4-yl)-3-fluoro-4-methoxy-5-{[(4-methylpiperazin-1-yl)acetyl]amino}benzamide]
– | – | 0.027 | 1.63 | COCCOCCOc1ccc(C(=O)Nc2ccc(-c3ccccc3)cc2)cc1NC(=O)C1(N2CCOCC2)CC1 [Example 217, N-(biphenyl-4-yl)-4-[2-(2-methoxyethoxy}ethoxy)-3-({[1-(morpholin-4-yl)cyclopropyl]carbonyl}amino)benzamide]
– | – | 0.011 | ≥ 50 | COCCOc1ccc(C(=O)Nc2ccc(-c3ccccc3)cc2)cc1NC(=O)C1(N2CCOCC2)CC1 [Example 218, N-(biphenyl-4-yl)-4-(2-methoxyethoxy)-3-({[1-(morpholin-4-yl)cyclopropyl]carbonyl)amino)benzamide]
– | – | 0.0655 | ≥ 50 | O=C(CN1CCN(C2CC2)CC1)Nc1cc(C(=O)Nc2ccc(-c3ccccc3)cc2)ccc1OCC1CC1 [Example 219, N-(biphenyl-4-yl)-4-(cyclopropylmethoxy)-3-{[(4-cyclopropylpiperazin-1-yl)acetyl]amino}benzamide]
– | – | 0.16 | ≥ 50 | O=C(CN1CCOCC1)Nc1cc(C(=O)Nc2ccc(-c3ccccc3)cc2)ccc1OCC1CC1 [Example 220, N-(biphenyl-4-yl)-4-(cyclopropylmethoxy)-3-[(morpholin-4-ylacetyl)amino)benzamide]

Reference: patent US20160052898A1, “NOVEL COMPOUNDS” (BAYER PHARMA AKTIENGESELLSCHAFT, priority 2013, published 2016)
